Results published in BindingDB's records for PubMed 32711292 (n/a, 2020).

Experiments:
Maltase-glucoamylase [1] = biological target: T1, Maltase-glucoamylase (Homo sapiens, UniProt O43451); test: Inhibition of alpha-glucosidase (unknown origin) by HPLC analysis
Maltase-glucoamylase [2] = biological target: T1, Maltase-glucoamylase; test: Inhibition of alpha-glucosidase (unknown origin)

T1 sequence (O43451 whole entry): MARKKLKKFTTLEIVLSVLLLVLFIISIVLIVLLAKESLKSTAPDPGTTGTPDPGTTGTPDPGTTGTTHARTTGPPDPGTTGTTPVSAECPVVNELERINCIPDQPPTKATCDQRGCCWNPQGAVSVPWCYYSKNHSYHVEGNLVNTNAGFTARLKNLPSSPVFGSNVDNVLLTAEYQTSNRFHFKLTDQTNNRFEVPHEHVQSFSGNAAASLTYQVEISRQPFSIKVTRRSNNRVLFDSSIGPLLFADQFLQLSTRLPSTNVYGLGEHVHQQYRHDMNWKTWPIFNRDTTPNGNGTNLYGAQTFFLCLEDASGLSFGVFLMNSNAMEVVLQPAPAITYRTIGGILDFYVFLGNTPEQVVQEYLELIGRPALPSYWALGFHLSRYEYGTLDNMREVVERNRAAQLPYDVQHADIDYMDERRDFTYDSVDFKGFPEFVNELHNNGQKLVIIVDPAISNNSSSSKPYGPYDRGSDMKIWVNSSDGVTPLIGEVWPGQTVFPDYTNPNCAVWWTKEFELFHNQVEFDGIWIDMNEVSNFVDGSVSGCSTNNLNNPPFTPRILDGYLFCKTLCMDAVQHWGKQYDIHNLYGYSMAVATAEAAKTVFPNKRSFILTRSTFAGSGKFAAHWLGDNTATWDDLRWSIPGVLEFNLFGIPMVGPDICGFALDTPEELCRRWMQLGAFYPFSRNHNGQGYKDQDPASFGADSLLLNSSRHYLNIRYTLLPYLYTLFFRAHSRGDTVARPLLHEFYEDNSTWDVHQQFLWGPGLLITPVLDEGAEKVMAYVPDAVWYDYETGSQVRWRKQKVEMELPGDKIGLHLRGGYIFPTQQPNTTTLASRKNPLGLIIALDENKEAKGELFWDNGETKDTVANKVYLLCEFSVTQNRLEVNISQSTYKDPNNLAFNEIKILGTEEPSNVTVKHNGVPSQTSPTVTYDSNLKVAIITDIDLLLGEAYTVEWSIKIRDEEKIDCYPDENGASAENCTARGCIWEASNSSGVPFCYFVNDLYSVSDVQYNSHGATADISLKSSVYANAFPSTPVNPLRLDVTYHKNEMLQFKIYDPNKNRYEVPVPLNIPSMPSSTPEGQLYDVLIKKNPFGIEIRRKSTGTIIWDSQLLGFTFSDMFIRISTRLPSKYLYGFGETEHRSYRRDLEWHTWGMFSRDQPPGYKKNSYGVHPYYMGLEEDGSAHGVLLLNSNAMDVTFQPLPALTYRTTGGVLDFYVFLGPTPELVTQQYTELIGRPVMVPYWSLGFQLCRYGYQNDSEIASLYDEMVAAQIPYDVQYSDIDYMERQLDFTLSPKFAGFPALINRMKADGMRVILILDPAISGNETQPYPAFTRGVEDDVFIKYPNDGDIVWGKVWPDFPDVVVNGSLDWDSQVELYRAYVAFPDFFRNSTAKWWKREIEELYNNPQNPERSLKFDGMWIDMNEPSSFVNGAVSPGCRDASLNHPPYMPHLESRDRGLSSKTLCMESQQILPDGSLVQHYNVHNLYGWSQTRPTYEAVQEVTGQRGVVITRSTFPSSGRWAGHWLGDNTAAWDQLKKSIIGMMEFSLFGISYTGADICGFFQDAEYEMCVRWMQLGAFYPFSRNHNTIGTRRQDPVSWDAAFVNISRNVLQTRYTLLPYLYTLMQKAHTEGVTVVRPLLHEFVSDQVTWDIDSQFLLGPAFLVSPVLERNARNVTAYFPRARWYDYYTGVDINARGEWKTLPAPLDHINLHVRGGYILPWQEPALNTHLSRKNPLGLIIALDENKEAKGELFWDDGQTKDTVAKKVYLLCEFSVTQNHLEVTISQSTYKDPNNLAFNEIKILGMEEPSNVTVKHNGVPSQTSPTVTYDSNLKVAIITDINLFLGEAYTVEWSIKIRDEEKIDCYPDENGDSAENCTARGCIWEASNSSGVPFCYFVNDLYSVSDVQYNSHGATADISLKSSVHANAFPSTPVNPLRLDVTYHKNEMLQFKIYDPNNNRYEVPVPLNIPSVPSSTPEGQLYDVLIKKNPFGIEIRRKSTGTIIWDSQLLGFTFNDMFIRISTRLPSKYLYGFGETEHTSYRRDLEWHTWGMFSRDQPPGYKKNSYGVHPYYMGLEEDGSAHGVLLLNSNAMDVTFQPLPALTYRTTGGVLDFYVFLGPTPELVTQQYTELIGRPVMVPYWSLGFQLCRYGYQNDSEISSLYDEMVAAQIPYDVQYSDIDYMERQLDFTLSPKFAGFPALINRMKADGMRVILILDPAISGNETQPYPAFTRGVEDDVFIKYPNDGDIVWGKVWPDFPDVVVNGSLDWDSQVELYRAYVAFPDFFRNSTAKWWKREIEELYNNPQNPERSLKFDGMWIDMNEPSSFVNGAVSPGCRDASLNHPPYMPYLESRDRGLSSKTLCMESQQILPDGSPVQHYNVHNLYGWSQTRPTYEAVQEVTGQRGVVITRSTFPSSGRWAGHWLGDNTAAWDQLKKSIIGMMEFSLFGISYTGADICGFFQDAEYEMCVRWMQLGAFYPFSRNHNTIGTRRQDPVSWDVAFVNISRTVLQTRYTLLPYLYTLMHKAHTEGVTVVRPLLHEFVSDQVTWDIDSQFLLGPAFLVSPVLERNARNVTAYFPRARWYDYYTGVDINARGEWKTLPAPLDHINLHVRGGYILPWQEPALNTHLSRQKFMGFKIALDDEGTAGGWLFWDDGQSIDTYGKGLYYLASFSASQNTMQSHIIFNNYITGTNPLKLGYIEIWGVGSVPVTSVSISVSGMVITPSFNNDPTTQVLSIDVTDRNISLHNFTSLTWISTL

| IC50 (Maltase-glucoamylase [1]) | IC50 (Maltase-glucoamylase [2]) | Compound |
| --- | --- | --- |
| 9460 µM | – | COc1cc([C@@H]2Oc3cc(CCc4ccc(O)cc4)cc(OC)c3O[C@H]2CO)cc(OC)c1O |
| 214 µM | – | COc1cc(CCc2cccc(O)c2)cc(O)c1O |
| 200 µM | – | COc1ccc(CCc2cc(O)c(O)c(OC)c2)cc1 |
| – | 103 µM | COc1cc(O)cc(CCc2ccc(O)c(OC)c2)c1 [GIGANTOL] |
| – | 149 µM | COc1cc(O)cc(CCc2cccc(O)c2)c1 [Batatasin III (4)] |
